# Measured values reported in the OligoGym collection.
# After the bases stand the sugars from the 5' end (letter, count) and the backbone: PS all phosphorothioate, else s phosphorothioate and o phosphodiester by linkage. Methylation of C is not given here. l = locked nucleic acid (LNA); d = 2'-deoxy (DNA)
# Target: SNHG14
# Details: ASO, Human Neuronal Cell
Sequence,target mRNA inhibition (0.2 µM) [%],target mRNA inhibition (1 µM) [%],target mRNA inhibition (7.5 µM) [%]
"TATAAGCTTACCTCAT (sugars l3 d10 l3, PS)",50,66,
"TATACCTTTCTTTAACCCT (sugars l2 d15 l2, PS)",13,37,
"TATACCTTTCTTTAACCCTT (sugars l2 d3 l1 d12 l2, PS)",,,43
"TATACCTTTCTTTAACCCTT (sugars lddddlddddddddddldll, PS)",,,61
"TATACCTTTCTTTAACCCTT (sugars lddddldddddddddlddll, PS)",,,61
"TATACCTTTCTTTAACCCTT (sugars ldddlddddddddddlddll, PS)",,,54
"TATCAATATCTTCTCA (sugars l2 d10 l4, PS)",46,61,
"TATCAGTTATCCAATA (sugars l4 d10 l2, PS)",42,51,
"TATCTATTTAATTTACAC (sugars l3 d12 l3, PS)",8,0,
"TATCTTTCCATTTATTTCC (sugars l1 d2 l2 d12 l2, PS)",,,47
"TATCTTTCCATTTATTTCC (sugars lddddldddddddddldll, PS)",,,52
"TATCTTTCCATTTATTTCCA (sugars l1 d2 l1 d14 l2, PS)",,,45
"TATCTTTCCATTTATTTCCA (sugars l2 d16 l2, PS)",,,-12
"TATCTTTCCATTTATTTCCA (sugars lddddlddddddddllddll, PS)",,,50
"TATCTTTGACATTCCAT (sugars l2 d11 l4, PS)",48,52,
"TATGACTCCAATAATC (sugars l3 d10 l3, PS)",30,44,
"TATGACTTATTCCATA (sugars l2 d10 l4, PS)",18,14,
"TATTGAACCAATTCTA (sugars l3 d10 l3, PS)",34,47,
"TATTGATTCAATTCCCT (sugars l1 d1 l3 d10 l2, PS)",,,71
"TATTGATTCAATTCCCT (sugars l2 d11 l4, PS)",58,71,
"TATTGATTCAATTCCCT (sugars l2 d12 l3, PS)",,,59
"TATTGATTCAATTCCCT (sugars lddllddddddddldll, PS)",,,64

Sequence,target mRNA inhibition (0.2 µM) [%],target mRNA inhibition (1 µM) [%],target mRNA inhibition (7.5 µM) [%]
"TATTGATTCAATTCCCT (sugars ldlldddddddllldll, PS)",,,19
"TATTGATTCAATTCCCT (sugars lldddddddddldldll, PS)",,,60
"TCAAAGCACACCACCAC (sugars l2 d12 l3, PS)",34,47,
"TCAAGAATTCTCTCCTT (sugars l2 d11 l4, PS)",47,51,
"TCAGAATAATTCTCCT (sugars l3 d10 l3, PS)",49,57,
"TCATCATATTGAACCA (sugars l3 d10 l3, PS)",65,68,
"TCATTGAACAACTCTTC (sugars l4 d11 l2, PS)",31,17,
"TCCATGCTACATAAAC (sugars l4 d10 l2, PS)",52,56,
"TCCATTTATTTCCATTTAT (sugars l2 d11 l2 d2 l2, PS)",,,53
"TCCATTTATTTCCATTTATT (sugars llddlddddddddldlddll, PS)",,,59
"TCCATTTATTTCCATTTATT (sugars lldldldddddddddddlll, PS)",,,55
"TCCTCTGCTTATAACTT (sugars l3 d12 l2, PS)",53,62,
"TCCTTTAGCATTTCTAT (sugars l3 d11 l3, PS)",45,60,
"TCTACCCTAAATTCCC (sugars l2 d11 l3, PS)",14,29,
"TCTATATCAAGTTCCTT (sugars l2 d11 l4, PS)",51,43,
"TCTCATGACCACCTAA (sugars l2 d10 l4, PS)",39,54,
"TCTGTATACACCATCC (sugars l4 d10 l2, PS)",61,68,
"TCTTACTCTGACTTTCCA (sugars l2 d14 l2, PS)",56,65,
"TCTTTCCATTTATTTCCATT (sugars l2 d4 l1 d11 l2, PS)",,,48
"TGAAAATCTCAACTACCAT (sugars ldllddddddddlddldll, PS)",,,44
"TGAAAATCTCAACTACCAT (sugars lldlldddddddlddldll, PS)",,,46
